The subject of assay [1] is Tsc2−/− MEFs. Kind of assay: Transwell cell migration assay in Tsc2−/− MEFs. The format is cell-based, mouse. To be noted: Tsc2+/+ as control cell; reduction not significant; FIG. 2 (A). Here is the method: (§1) (ii) Tsc2−/− p53−/− and Tsc2+/+p53−/− mouse embryonic fibroblast (MEF) cell lines (now referred to as Tsc2−/− and Tsc2+/+, respectively).
(§2) Tsc2−/− and Tsc2+/+ cell lines were cultured and maintained in DMEM supplemented with 10% (v/v) FBS and 1% (v/v) penicillin-streptomycin in a humidified incubator (5% CO2 at 37° C.). The AML −/− cell lines were cultured and maintained in DMEM supplemented with 15% (v/v) FBS and 1% (v/v) penicillin-streptomycin in a humidified incubator (5% CO2 at 37° C.). For hypoxia, cells were put into a Binder CB150 hypoxic chamber set at 1% 02 for the indicated time points
(§3) The stock concentration of CBD was made to 20 mM in dimethyl sulfoxide (DMSO). CBD was added to culture media to final concentrations of either 5 μM or 10 μM, as indicated). The final concentration of the DMSO in the cell culture medium was at a maximum level of 0.05% (v/v).
Transwell permeable supports with 6.5 mm diameter inserts, 8.0 μm pore size, and a polycarbonate membrane were used to perform migration assays. Cells were grown in a 75-cm2 flask with standard medium (10% (v/v) FBS) until confluent. […] Cells were counted using a haemocytometer. […] The percentage of adherent cells was then determined by fixing the cells with methanol and acetone (1:1) for 20 minutes at 20° C. […] Crystal Violet stained cells were eluted with 1% (w/v) SDS and the absorbance was read at 550 nm on a Genova MK3 Lifescience.

The subject of assay [2] is Tsc2−/− MEFs. Kind of assay: Matrigel cell invasion assay in Tsc2−/− MEFs. Format: cell-based, mouse. Here is the method:
as §1, §2, §3
Transwell permeable supports with 6.5 mm diameter inserts, 8.0 μm pore size, and a polycarbonate membrane were used to perform migration assays. Cells were grown in a 75-cm2 flask with standard medium (10% (v/v) FBS) until confluent. […] Cells were counted using a haemocytometer. […] The percentage of adherent cells was then determined by fixing the cells with methanol and acetone (1:1) for 20 minutes at 20° C. […] Crystal Violet stained cells were eluted with 1% (w/v) SDS and the absorbance was read at 550 nm on a Genova MK3 Lifescience. […]

The next assay deals with AML 621-101 cells. Kind of assay: Tumour spheroid growth (soft agar) assay in AML 621-101 cells. Format: cell-based. To be noted: 10 μM CBD. As to the method:
(i) Angiomyolipomas (AML) cells derived from a Tuberous Sclerosis Complex patient (621-101 cell-line), with a known loss of function of TSC2. […] Zeocin™ was purchased from LifeTechnologies (cat no: R25001) and was used to originally generate the stable cell line (by Prof. Lisa Henske) over two weeks of Zeocin™ selection and then for continued maintenance of the cells in tissue culture (at 100 μg/ml).
as §3
Two-layered soft agar assays were carried out in 6-well plates. All cell lines were plated in complete DMEM media in 0.35% (v/v) agar at (3*10^5) over a 0.6% (v/v) agar layer. The agar was then overlaid with complete DMEM media and spheroids were grown for 14 days at 37° C. in 5% CO2. Media were changed twice a week and new drug was added to media. Pictures were taken using an inverted AMG EVOS microscope equipped with an Olympus camera. Volume of tumour spheroids was measured using ImageJ software.

The next assay concerns pS6 positive cells. The experiment in a line: Size of pS6 positive cells in zebrafish model of TSC. The format is in vivo. The text has this:
A zebrafish model of TSC with a tsc2 gene deletion was used. This model has been previously published and validated (Kim et al. 2011). By mating the gene deletion animals with wild-type tsc2+/+ animals, heterozygote (tsc2+/−) zebrafish were also obtained and tested in this example.
For both pS6 and TUNEL staining, non-consecutive sections were imaged using a Zeiss AxioImager microscope. Exposure time was kept constant during image acquisition and determined by the observation of a slide where primary antibody or enzyme solution was omitted. Pictures were taken with a 20× objective, using the AxioVision software, and coloured using Fiji ImageJ. All counting and measuring of cells was done in the original black and white pictures.
Statistical analysis was performed in SPSS (IBM SPSS Statistics 22), except for the chi-square test, which was done using GraphPad Prism 5. Normality and sphericity were tested using the Kolmogorov-Smirnov and Mauchly's tests, respectively. Repeated measures two-way ANOVA tests were used to analyse the locomotor assay data and cell number, while a three-way ANOVA test was used to analyse cell size. Touch response (TR) between genotypes and treatments was analysed by chi-square test. Tests were followed by Tukey or Bonferroni post-hoc tests.

Another assay relates to Miapaca cells. The experiment in a line: MTT cell viability assay in Miapaca. Format: cell-based. To be noted: Homo sapiens, MIA PaCa-2, 72 h, FIG. 6B, read-out: concentration at which 50% growth inhibition was reached. Here is the method:
MIAPACA is a Homo sapiens pancreas carcinoma. This is a hypotriploid human cell line.
Cell viability was analyzed by the MTT [3-(4,5-dimethylthiazol-2-yl)-2,5-diphenyl tetrazolium bromide] assay. Pancreatic cancer cells were seeded onto each well of a 96-well plate. After 72 h of treatment with CBD, MTT solution 5 mg/ml in PBS was added to each well. The plates were then incubated at 37° C. for an additional 4 h to allow MTT to form formazan crystals by reacting with metabolically active cells. The formazan crystals were solubilized in a 1N isopropanol/HCl 10% solution at 37° C., on a shaking table for 20 min. The absorbance values of the solution in each well were measured at 570 nm using a microplate reader. Cell viability was determined by the formula: cell viability (%)=(absorbance of the treated wells−absorbance of the blank control wells)/(absorbance of the negative control wells−absorbance of the blank control wells)×100%. All MTT experiments were performed in triplicate and repeated at least three times.
Background: Formazan colour is commonly taken as a measure of viable cells.

The conditions of assay [3]: TSC patients having focal onset seizures; cited from earlier work.

As for `C=C(C)[C@@H]1CCC(C)=C[C@H]1c1c(O)cc(CCCCC)cc1O` [CBD, Cannabidiol], the cell migration result with Tsc2−/− MEFs [1] was “reduce cell migration to control level”. Besides, the cell invasion entry with Tsc2−/− MEFs [2] (5 μM CBD) is listed as “restoring invasion to the level of the Tsc2+/+ control cells”; in the assay on Tsc2−/− MEFs [2] (10 μM CBD), “more robust effect”. For the same molecule, the tumour spheroid formation entry in the assay with AML 621-101 cells is given as “sufficient to block tumour spheroid formation”. Moreover, the “change in size of pS6 positive cells” value with pS6 positive cells (main effect of treatment, compared to Danieau's or DMSO groups, FIG. 5B) is on record as −20.1%; in the assay on pS6 positive cells (tsc2+/− zebrafish, compared to Danieau's, FIG. 5C) it was −27.6%; in the assay with pS6 positive cells (tsc2+/− zebrafish, compared to the DMSO group, FIG. 5C), −18.1%; with pS6 positive cells (tsc2−/− zebrafish, compared to Danieau's, FIG. 5C) it was −23%; in the assay with pS6 positive cells (tsc2−/− zebrafish, compared to the DMSO group, FIG. 5C) it was −20.8%. Further, in the assay with pS6 positive cells (tsc2+/+ zebrafish), the “effect on size of pS6 positive cells” value is listed as “did not affect cell size”. Further, in the assay with Miapaca cells, the IC50 turned out to be 15 µM. Moreover, in assay [3], the “treatment of refractory epilepsy” value is “beneficial”.
